Ends that are not written are not given here.
What was measured:
[1] = tested on: Primary fibroblasts from Progeria patients; assay: Senescence screen (SA B-galactosidase staining) of polypeptide library; type: cell-based, human; conditions: 10 μM, 48 hours
Description: Primary fibroblasts isolated from Progeria patients can constitute a genetic model of early aging and cellular senescence in humans. Primary fibroblasts from Progeria patients were cultured in DMEM (Dulbecco's Modified Eagle's Medium) supplemented with 10% v.v. fetal bovine serum (FBS), and 1% v.v. of penicillin/streptomycin solution (1,000 U·mL-1). Cells were kept in a 5% CO2, 37° C. and 95% humidity atmosphere. After expansion, these cells were seeded in 96-well plates (1,000 cells per well) and, 6 hours after plating, were incubated with individual polypeptides from a proprietary library at 50 μM for 48 hours. Negative control comprised untreated cells, which received vehicle only; positive control group comprised cells incubated with 10 μM ABT-263, a senolytic compound for the same period. […] Three independent experiments including three technical replicates were performed.

[2] = tested on: Primary fibroblasts from Progeria patients; assay: Senescence in Progeria fibroblasts (LKGIL, WLKGI); type: cell-based, human; conditions: 500 nM, 5 μM, 50 μM
[3] = tested on: human primary fibroblasts isolated from 3 healthy donors; assay: Etoposide-induced senescence; type: cell-based; conditions: etoposide 20 μM
Description: Cellular senescence may be caused by several different stimuli. In order to assess whether Peptide 14 was effective against UVB-induced and chemically-induced senescence, human primary fibroblasts isolated from 3 healthy donors were used. These cells were cultured in DMEM (Dulbecco's Modified Eagle's Medium) supplemented with 10% v.v. fetal bovine serum (FBS), and 1% v.v. of penicillin/streptomycin solution (1,000 U mL-1). Cells were kept in a 5% CO2, 37° C. and 95% humidity atmosphere. After expansion, these cells were seeded in 96-well plates (4,000 cells per well) and, 6 hours after plating, were submitted to either etoposide (20 μM) treatment for 24 hours, or exposed twice to 0.05 J/cm^2 of UVB radiation. […] After incubation, relative cellular senescence (assessed by the activity of senescence associated β-galactosidase staining relative to untreated control) was analyzed and plotted in column graphs. ATRX foci were also assessed following ATRX immunofluorescence staining. Graphs were built using the average ATRX foci detected per nuclei. […] Data was analyzed using with either t-test or ANOVA followed by a Bonferroni post-hoc test. Statistical significance was determined as p-values equal or lower than 0.05 (FIG. 6).

HGPS HDFs = assay: PP2A modulators and senescence markers; type: cell-based, human; conditions: 48 hs; for cellular senescence (SA-BGal+ cells): Okadaic Acid 5-7.5 nM or DT-061 7.5 μM
Description: Since PP2A has not been explored for cellular senescence modulation, whether the treatment of HGPS HDFs with a PP2A inhibitor (Okadaic acid—OA) and activator (DT-061) would result in the modulation of cellular senescence markers was assessed. HGPS HDFs were treated with 5-7.5 nM Okadaic Acid or 7.5 μM DT-061 for 48 hs. Some cells were treated with both 5 nM Okadaic Acid and 12.5 μM Peptide 14 for 48 hours. The senescence level was determined by SA β-galactosidase staining and normalized to total cell number.

[4] = tested on: ex vivo skin biopsies (donors); assay: Topical application to ex vivo skin biopsies; type: cell-based, human; conditions: vs untreated
From the text: Senescent cell accumulation in the skin has been related to facial wrinkling and perceived age. A formulation having a concentration of Peptide 14 in the formulation was adjusted (0.01% w/v) to support the skin penetration of the Peptide 14 of up to 2% into the dermis was applied to ex vivo skin biopsies (from donors). A topical retinol application group was used as an “anti-aging” control, due to its widespread and decades-long use in the field, along with a no treatment control group.

[5] = tested on: peripheral blood mononuclear cells (PBMCs); assay: PBMC mRNA of IFN-γ and IL-10 (RT-qPCR); type: cell-based, human
Description: The effect of Peptide 14 on T cell activation was assessed by treating PBMCs stimulated with phytohaemagglutinin (PHA) with Peptide 14. PHA usually can trigger lymphocyte activation and cell division. PBMCs that were untreated with PHA or Peptide 14 served as negative control of lymphocyte activation. In the phytohaemagglutinin group, the PBMCs were activated with 5 μg/mL of PHA for 5 days. In the Peptide 14 and PHA group, the PBMCs were activated with 5 μg/mL of PHA and treated with 3.12 μM of Peptide 14 for 5 days. In the Peptide 14 group, the PBMCs were treated with 3.12 μM of Peptide 14 for 5 days. In the rapamycin group, the PBMCs were treated with 100 nM of rapamycin, a well-known immunosuppressive drug for 5 days. In the rapamycin+PHA group, the PBMCs were activated with 5 μg/mL of PHA and treated with 100 nM of rapamycin for 5 days. […] IFN-γ is typically produced in lymphocytes stimulated by PHA and may be used as marker of PBMC stimulation level. IL-10 is an anti-inflammatory cytokine. The cells from each of the experimental groups were processed for total RNA isolation, reverse transcription of the RNA and RT-qPCR. Data is represented as relative expression normalized to ubiquitous gene expression and untreated PBMC negative control.

CC1(C)CCC(c2ccc(Cl)cc2)=C(CN2CCN(c3ccc(C(=O)NS(=O)(=O)c4ccc(N[C@H](CCN5CCOCC5)CSc5ccccc5)c(S(=O)(=O)C(F)(F)F)c4)cc3)CC2)C1 [ABT-263]
cellular toxicity (cell number) [1]: cellular toxicity | relative cellular senescence (SA B-galactosidase staining) ([1]; positive control): significant reduction of cellular senescence

LKGIL [LKGIL]
cellular toxicity (relative cell number) [2]: No cellular toxicity

COc1cc([C@@H]2c3cc4c(cc3[C@@H](O[C@@H]3O[C@@H]5CO[C@@H](C)O[C@H]5[C@H](O)[C@H]3O)[C@H]3COC(=O)[C@H]23)OCO4)cc(OC)c1O [Etoposide, etoposide]
ATRX foci nuclear accumulation (average ATRX foci/cell) ([3]; 24 hours): significant increase | cellular senescence level (SA β-galactosidase) ([3]; 24 hours (senescence inducer)): significant increase

C=C1[C@@H](O)[C@@H]2O[C@]3(CC[C@H](/C=C/[C@@H](C)[C@@H]4CC(C)=C[C@@]5(O[C@H](C[C@@](C)(O)C(=O)O)CC[C@H]5O)O4)O3)CC[C@H]2O[C@@H]1[C@@H](O)C[C@H](C)[C@H]1O[C@@]2(CCCCO2)CC[C@H]1C [OA, Okadaic acid]
cellular senescence (SA-BGal+ cells) (HGPS HDFs): significant increase | CDKN1A expression (HGPS HDFs; Okadaic Acid 5-7.5 nM): significant increase | CXCL1 (SASP marker) expression (HGPS HDFs; Okadaic Acid 5-7.5 nM): significant increase | IL6 (SASP marker) expression (HGPS HDFs; Okadaic Acid 5-7.5 nM): significant increase

O=S(=O)(N[C@@H]1CCC[C@H](N2c3ccccc3Oc3ccccc32)[C@H]1O)c1ccc(OC(F)(F)F)cc1 [DT-061]
cellular senescence (SA-BGal+ cells) (HGPS HDFs): SA-BGal+ cell reduction

CC1=C(/C=C/C(C)=C/C=C/C(C)=C/CO)C(C)(C)CCC1 [Retinol]
B2M expression, dermis [4]: significantly decreased | HAS2 expression, dermal samples [4]: increase | IL8 level, epidermis [4]: significantly increased | Ki-67 expression, epidermis [4]: significantly increased | P16 mRNA expression, dermis [4]: significant increase | P16 mRNA expression, epidermis [4]: significant increase | dermal Ki67 expression [4]: significantly induced | dermal collagen 1 expression [4]: significantly induced | keratin 1 expression, epidermis [4]: significantly reduced | keratin 14 expression, epidermis [4]: significantly reduced

WLKGI [WLKGI]
cellular toxicity (relative cell number) [2]: No cellular toxicity

CO[C@H]1C[C@@H]2CC[C@@H](C)[C@@](O)(O2)C(=O)C(=O)N2CCCC[C@H]2C(=O)O[C@H]([C@H](C)C[C@@H]2CC[C@@H](O)[C@H](OC)C2)CC(=O)[C@H](C)/C=C(\C)[C@@H](O)[C@@H](OC)C(=O)[C@H](C)C[C@H](C)/C=C/C=C/C=C/1C [rapamycin]
relative expression level of IL-10 (negative control = 1) ([5]; single agent, 5 days (Peptide 14 3.12 μM; rapamycin 100 nM; PHA 5 μg/mL)): about 2.5 | relative expression level of IL-10 (negative control = 1) ([5]; with 5 μg/mL PHA, 5 days (Peptide 14 3.12 μM; rapamycin 100 nM)): about 0.2
